From patent US9376420B2 (YUHAN CORPORATION, priority 2012, dated 2016)

Molecular target: T1, human LXRβ (Homo sapiens, UniProt P55055)
T1 construct: expressed in transfected cells; host or cells: HEK293 cells (ATCC CRL-1573), transient transfection with pFA-hLXRβ/GAL4 and pUAS
T1 sequence (P55055 222-460 limits assumed): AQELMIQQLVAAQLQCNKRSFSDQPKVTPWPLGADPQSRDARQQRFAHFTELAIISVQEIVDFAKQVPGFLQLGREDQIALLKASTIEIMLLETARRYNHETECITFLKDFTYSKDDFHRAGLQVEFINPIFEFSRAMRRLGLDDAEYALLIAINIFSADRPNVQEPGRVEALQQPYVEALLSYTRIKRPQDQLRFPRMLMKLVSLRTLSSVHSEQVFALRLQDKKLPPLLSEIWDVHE
Test: Assay for Transcriptional Activity of LXRβ (GAL4-hLXRβ LBD luciferase reporter, transient transfection)
Type: cell-based
Settings: HEK293 cells transfected with pFA-hLXRβ/GAL4 and pUAS, 24 hours; for Emax: fold value in comparison with the control (DMSO-treated group); for EC50: increase of transcriptional activity of LXRβ, average of three independent tests
Method in brief: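 EC50 values, averaged over three independent runs, come from a four-parameter fit of 9-point half-log curves spanning 0.01–50 μM. Luciferase output was read in lysed HEK293 cells 24 h after dosing at 37 °C, following transient transfection with a GAL4-human LXRβ LBD fusion plus GAL4-responsive reporter.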

Structure (SMILES) | Emax | EC50
COc1ncc(-c2cccc(C3CC(C(F)(F)C(F)(F)F)=NN3c3ccc(F)cc3F)c2)cc1C=O (centres unmarked) [Example 73, 1-(2,4-difluoro-phenyl)-5-(3-(3-formyl-2-methoxy-pyridin-5-yl)-phenyl)-3-pentafluoroethyl-4,5-dihydro-1H-pyrazole] | 13 fold | 1070 nM
CS(=O)(=O)c1ccc(-c2cc(C3CC(C(F)(F)C(F)(F)F)=NN3c3ccc(F)cc3F)ccn2)cn1 (centres unmarked) [Example 189, 1-(2,4-difluoro-phenyl)-5-[2-(6-methanesulfonyl-pyridin-3-yl)-pyridin-4-yl]-3-pentafluoroethyl-4,5-dihydro-1H-pyrazole] | 56 fold | 2720 nM
C[S+]([O-])c1ccc(-c2cccc(C3CC(C(F)(F)C(F)(F)F)=NN3c3ccc(F)cc3F)c2)cc1 (centres unmarked) [Example 52, 1-(2,4-difluoro-phenyl)-5-(4′-methanesulfinyl-biphenyl-3-yl)-3-pentafluoroethyl-4,5-dihydro-1H-pyrazole] | 56 fold | 546 nM
O=C(CC1CCCC1)N1CC=C(c2cccc(C3CC(C(O)(C(F)(F)F)C(F)(F)F)=NN3c3ccccc3Cl)c2)CC1 (centres unmarked) [Example 232, 1-(2-chloro-phenyl)-5-{3-[1-(2-cyclopentyl-acetyl)-1,2,3,6-tetrahydropyridin-4-yl]-phenyl}-3-[di-(trifluoromethyl)-hydroxy-methyl]-4,5-dihydro-1H-pyrazole] | 77 fold | 70 nM
CC(C)(C)OC(=O)N1CC=C(c2cccc(C3CC(C(O)(C(F)(F)F)C(F)(F)F)=NN3c3ccccc3Cl)c2)CC1 (centres unmarked) [Example 229, 1-(2-chloro-phenyl)-5-[3-(1-BOC-1,2,3,6-tetrahydropyridin-4-yl)-phenyl]-3-[di-(trifluoromethyl)-hydroxy-methyl]-4,5-dihydro-1H-pyrazole] | 126 fold | 76 nM
CS(=O)(=O)c1cccc(-c2ccnc(C3CC(C(F)(F)C(F)(F)F)=NN3c3ccc(F)cc3F)c2)c1 (centres unmarked) [Example 177, 1-(2,4-difluoro-phenyl)-5-[4-(3-methanesulfonyl-phenyl)-pyridin-2-yl]-3-pentafluoroethyl-4,5-dihydro-1H-pyrazole] | 57 fold | 26 nM
CSc1ccc(-c2ccc(F)c(C3CC(C(F)(F)C(F)(F)F)=NN3c3ccc(F)cc3F)c2)cn1 (centres unmarked) [Example 140, 1-(2,4-difluoro-phenyl)-5-[6-fluoro-3-(6-methylsulfanyl-pyridin-3-yl)-phenyl]-3-pentafluoroethyl-4,5-dihydro-1H-pyrazole] | 143 fold | 1770 nM
COc1ncc(-c2cccc(C3CC(C(F)(F)C(F)(F)F)=NN3c3ccc(F)cc3F)c2)cc1CO (centres unmarked) [Example 90, 1-(2,4-difluoro-phenyl)-5-[3-(5-hydroxymethyl-6-methoxy-pyridin-3-yl)-phenyl]-3-pentafluoroethyl-4,5-dihydro-1H-pyrazole] | 33 fold | 2650 nM
CS(=O)(=O)c1cccc(-c2cccc(N3N=C(C(F)(F)C(F)(F)F)CC3c3ccc(F)cc3F)c2)c1 (centres unmarked) [Example 206, 5-(2,4-difluoro-phenyl)-1-[3′-(methylsulfonyl)-biphenyl-3-yl]-3-pentafluoroethyl-4,5-dihydro-1H-pyrazole] | 87 fold | 1400 nM
O=S(=O)(C1CC1)N1CCN(c2ccc(F)c(C3CC(C(F)(F)C(F)(F)F)=NN3c3ccc(F)cc3F)c2)CC1 (centres unmarked) [Example 146, 1-(2,4-difluoro)-5-[2-fluoro-5-(4-cyclopropanesulfonyl-piperazin-1-yl)-phenyl]-3-pentafluoroethyl-4,5-dihydro-1H-pyrazole] | 105 fold | 842 nM
CS(=O)(=O)N1CC=C(c2cccc(C3CC(C(F)(F)C(F)(F)F)=NN3c3ccc(F)cc3F)c2)CC1 (centres unmarked) [Example 62, 1-(2,4-difluoro-phenyl)-5-[3-(1-methanesulfonyl-1,2,3,6-tetrahydropyridin-4-yl)-phenyl]-3-pentafluoroethyl-4,5-dihydro-1H-pyrazole] | 59 fold | 1160 nM

The next lines start with the values.

Emax | EC50 | Structure (SMILES)
30 fold | 354 nM | CS(=O)(=O)c1cccc(-c2cccc(N3N=C(C(O)(C(F)(F)F)C(F)(F)F)CC3c3ccccc3Cl)c2)c1 (centres unmarked) [Example 434, 5-(2-chloro-phenyl)-1-[3′-(methylsulfonyl)-biphenyl-3-yl]-3-[di-(trifluoromethyl)-hydroxy-methyl]-4,5-dihydro-1H-pyrazole]
25 fold | 965 nM | CS(=O)(=O)c1ccc(-c2cccc(N3N=C(C(O)(C(F)(F)F)C(F)(F)F)CC3c3ccccc3Cl)c2)cn1 (centres unmarked) [Example 435, 5-(2-chloro-phenyl)-1-{3-[6-(methylsulfonyl)-pyridin-3-yl]-phenyl}-3-[di-(trifluoromethyl)-hydroxy-methyl]-4,5-dihydro-1H-pyrazole]
15 fold | 5270 nM | CC(C)(C)OC(=O)N1CCN(c2ccc(C3CC(C(O)(C(F)(F)F)C(F)(F)F)=NN3c3ccc(F)cc3F)cc2)CC1 (centres unmarked) [Example 404, 1-(2,4-difluoro-phenyl)-5-[4-(4-BOC-piperazin-1-yl)-phenyl]-3-[di-(trifluoromethyl)-hydroxy-methyl]-4,5-dihydro-1H-pyrazole]
55 fold | 318 nM | CS(=O)(=O)c1ccc(-c2ccc(C3CC(C(O)(C(F)(F)F)C(F)(F)F)=NN3c3ccc(F)cc3F)cc2)cc1C#N (centres unmarked) [Example 390, 1-(2,4-difluoro-phenyl)-5-(3′-cyano-4′-methanesulfonyl-biphenyl-4-yl)-3-[di-(trifluoromethyl)-hydroxy-methyl]-4,5-dihydro-1H-pyrazole]
33 fold | 2030 nM | OC(C1=NN(c2ccccc2Cl)C(c2ccc(-c3ccc(C(F)(F)F)cc3)cc2)C1)(C(F)(F)F)C(F)(F)F (centres unmarked) [Example 247, 1-(2-chloro-phenyl)-5-[4′-(trifluoromethyl)-biphenyl-4-yl]-3-[di-(trifluoromethyl)-hydroxy-methyl]-4,5-dihydro-1H-pyrazole]
42 fold | 71 nM | C[S+]([O-])c1cccc(-c2ccc(C3CC(C(O)(C(F)(F)F)C(F)(F)F)=NN3c3ccccc3Cl)c(F)c2)c1 (centres unmarked) [Example 345, 1-(2-chloro-phenyl)-5-(3-fluoro-3′-methanesulfinyl-biphenyl-4-yl)-3-[di-(trifluoromethyl)-hydroxy-methyl]-4,5-dihydro-1H-pyrazole]
45 fold | 547 nM | Cc1ccncc1-c1ccc(C2CC(C(O)(C(F)(F)F)C(F)(F)F)=NN2c2ccccc2Cl)cc1 (centres unmarked) [Example 271, 1-(2-chloro-phenyl)-5-[4-(4-methyl-pyridin-3-yl)-phenyl]-3-[di-(trifluoromethyl)-hydroxy-methyl]-4,5-dihydro-1H-pyrazole]
44 fold | 157 nM | CN(C)S(=O)(=O)N1CC=C(c2cccc(C3CC(C(O)(C(F)(F)F)C(F)(F)F)=NN3c3ccccc3Cl)c2)CC1 (centres unmarked) [Example 240, 1-(2-chloro-phenyl)-5-[3-(1-dimethylsulfamoyl-1,2,3,6-tetrahydropyridin-4-yl)-phenyl]-3-[di-(trifluoromethyl)-hydroxy-methyl]-4,5-dihydro-1H-pyrazole]
44 fold | 7930 nM | CCOc1ccc(-c2ccc(C3CC(C(O)(C(F)(F)F)C(F)(F)F)=NN3c3ccccc3Cl)cc2)cn1 (centres unmarked) [Example 269, 1-(2-chloro-phenyl)-5-[4-(6-ethoxy-pyridin-3-yl)-phenyl]-3-[di-(trifluoromethyl)-hydroxy-methyl]-4,5-dihydro-1H-pyrazole]
48 fold | 437 nM | COc1cc(C)c(-c2ccc(C3CC(C(O)(C(F)(F)F)C(F)(F)F)=NN3c3ccccc3Cl)cc2)cn1 (centres unmarked) [Example 270, 1-(2-chloro-phenyl)-5-[4-(6-methoxy-4-methyl-pyridin-3-yl)-phenyl]-3-[di-(trifluoromethyl)-hydroxy-methyl]-4,5-dihydro-1H-pyrazole]
53 fold | 966 nM | CS(=O)(=O)N1CCN(c2ccc(C3CC(C(O)(C(F)(F)F)C(F)(F)F)=NN3c3ccc(F)cc3F)cc2)CC1 (centres unmarked) [Example 406, 1-(2,4-difluoro-phenyl)-5-[4-(4-methanesulfonyl-piperazin-1-yl)-phenyl]-3-[di-(trifluoromethyl)-hydroxy-methyl]-4,5-dihydro-1H-pyrazole]
101 fold | 780 nM | Cc1ccccc1-c1ccc(C2CC(C(O)(C(F)(F)F)C(F)(F)F)=NN2c2ccccc2Cl)c(F)c1 (centres unmarked) [Example 340, 1-(2-chloro-phenyl)-5-(3-fluoro-2′-methyl-biphenyl-4-yl)-3-[di-(trifluoromethyl)-hydroxy-methyl]-4,5-dihydro-1H-pyrazole]
68 fold | 283 nM | CS(=O)(=O)c1ccc(-c2ccc(C3CC(C(O)(C(F)(F)F)C(F)(F)F)=NN3c3ccccc3Cl)cc2F)cc1 (centres unmarked) [Example 365, 1-(2-chloro-phenyl)-5-(2-fluoro-4′-methylsulfonyl-biphenyl-4-yl)-3-[di-(trifluoromethyl)-hydroxy-methyl]-4,5-dihydro-1H-pyrazole]
29 fold | 503 nM | CS(=O)(=O)c1cc(F)c(-c2ccc(C3CC(C(O)(C(F)(F)F)C(F)(F)F)=NN3c3ccc(F)cc3F)cc2)c(F)c1 (centres unmarked) [Example 389, 1-(2,4-difluoro-phenyl)-5-(2′,6′-difluoro-4′-methanesulfonyl-biphenyl-4-yl)-3-[di-(trifluoromethyl)-hydroxy-methyl]-4,5-dihydro-1H-pyrazole]
